Patent publication US8575320B2, “Compositions and methods for separating, characterizing and administering soluble selenoglycoproteins” (Alltech, Inc., priority 2010, dated 2013)

Tested on: gene expression in chicken breast muscle tissue
Experiment: Microarray gene expression profile in breast muscle of broilers fed different selenium sources
Type: in vivo
Settings: P<0.05, FC>1.2 vs Control, 0.3 ppm Se diet, 18 days
Method: Breast muscle tissue from chickens referenced in Example 3 was used to assess similarities and differences in gene expression profiles elicited by the following dietary treatments: Treatment 1-basal (Control); Treatment 2-Control+0.3 ppm sodium-selenite (SS); Treatment 3-Control+0.3 ppm SEL-PLEX; Treatment 6-0.3 ppm SGP fraction extracted from SEL-PLEX (SP) at pH 4.0. […] As such, experiments were conducted during development of embodiments of the invention in order to determine if animals receiving SGP fraction pH 4.0 experienced similar in vivo effects (e.g., gene expression changes) observed in SP fed animals, or whether significant, measurable differences existed.
At 18-days of age, five chickens from each treatment group (described above and in Tables 3 and 4) were randomly selected and euthanized by argon asphyxiation, followed by cervical dislocation. Samples of breast muscle tissue (1 gram) were rapidly removed and flash frozen in liquid nitrogen. Samples were stored at −80° C. until analyzed.
Total RNA was isolated from frozen tissue using TRIZOL reagent (INVITROGEN, Carlsbad, Calif.) according to the manufacturer's protocol and purified using a RNEASY kit (QIAGEN, Valencia, Calif.). Total RNA was quantified by absorbance at 260 nm and integrity was confirmed by agarose gel electrophoresis and ethidium bromide staining of the 28S and 18S bands. […]

**Q.** How did the “number of genes significantly changed” value turn out when `O=[Se](O)O` [SS, sodium selenite] was run?
**A.** 283
